Values of other authors in article PMC5572761 (Journal of medicinal chemistry, 2017).

Test system: α3β4 nAChR
Conditions: read-out: IC50 [nM] α3β4; cited from earlier work

With α-conotoxin AuIB [Peptide 17] as the substance, how does the IC50 read?
Its IC50 is 750 nM.
